The results in this text go back to publication PMC10389753, “Rational Design of Chitin Deacetylase Inhibitors for Sustainable Agricultural Use Based on Molecular Topology” (Journal of Agricultural and Food Chemistry, 2022).

The structures appear in SMILES notation.

The target in test [1] is T1, PxCDA2 (Podosphaera xanthii, UniProt A0A6S4IDJ3).
T1 construct: recombinant, N-terminal 6-His tag, expressed in E. coli
Kind of test: fluorescamine assay, colloidal chitin substrate. Format: biochemical. The source says: fluorescamine assay, colloidal chitin substrate on PxCDA2

The target of test [2] is T2, PxCDA1 (Podosphaera xanthii, UniProt A0A6S4IFB1).
T2 construct: recombinant, N-terminal 6-His tag, expressed in E. coli
Kind of test: fluorescamine assay, colloidal chitin substrate. It counts as biochemical. The text has this:
fluorescamine assay, colloidal chitin substrate on PxCDA1

T2 sequence (A0A6S4IFB1 23-324 limits assumed): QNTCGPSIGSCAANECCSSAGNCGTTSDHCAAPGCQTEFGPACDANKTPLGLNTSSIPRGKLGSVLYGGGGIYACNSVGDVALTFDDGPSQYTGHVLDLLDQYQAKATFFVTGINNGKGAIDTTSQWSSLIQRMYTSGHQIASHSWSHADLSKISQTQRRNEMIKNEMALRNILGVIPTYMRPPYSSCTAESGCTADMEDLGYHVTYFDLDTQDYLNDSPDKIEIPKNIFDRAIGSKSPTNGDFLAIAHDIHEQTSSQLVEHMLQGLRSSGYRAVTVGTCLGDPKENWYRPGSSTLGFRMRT
T1 sequence (A0A6S4IDJ3 23-314 limits assumed): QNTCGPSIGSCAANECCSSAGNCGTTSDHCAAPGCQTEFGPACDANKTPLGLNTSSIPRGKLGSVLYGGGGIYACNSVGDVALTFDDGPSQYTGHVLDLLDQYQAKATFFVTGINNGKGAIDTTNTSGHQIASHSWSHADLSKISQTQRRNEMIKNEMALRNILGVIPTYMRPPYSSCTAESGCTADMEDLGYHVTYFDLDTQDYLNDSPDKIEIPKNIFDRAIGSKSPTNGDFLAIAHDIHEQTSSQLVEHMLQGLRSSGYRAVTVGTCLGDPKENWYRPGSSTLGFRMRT

One may read the inhibition as the share of the control response that was lost under treatment. A low value points to a response near the control. With `CN1C(=O)C(=Cc2cccc(OCC(=O)O)c2)C(=O)N(C)C1=O` [VS#2-1], the inhibition at 100 µM in test [1] was 74.5%; in test [2], 86.9%.
As to `Cn1c(=O)n(CC(=O)O)c(=O)c2c1nc1n2CCS1` [VS#2-2], the inhibition at 100 µM was 93% in test [1] and 79.4% in test [2].
Turning to `C=CCN1C(=O)NC(=O)/C(=C/c2ccc(OCC(=O)O)c(OC)c2)C1=O` [VS#2-3], the inhibition at 100 µM in test [1] amounted to 74.5%; in test [2], 86.8%.
